Assay results published in patent US11254671B2, “Chemical compounds” (GLAXOSMITHKLINE INTELLECTUAL PROPERTY DEVELOPMENT LIMITED, priority 2017, dated 2022).

Tested on: phosphorylated Akt at serine 473 (pAKTs473) in primary human lung fibroblasts
Test: Highthroughput phosphorylated Akt (Ser473) in vitro immunoassay (MSD)
Assay type: cell-based
Conditions: Fibroblast, 1 h compound, PDGF-BB 10 ng/ml for 10 min, mean of multiple experiments, read-out: mean pIC50, inhibition of pAkt (Ser473) (converted)
From the text: Highthroughput Phosphorylated Akt (Ser473) In Vitro Immunoassay
Immunoassay to measure effect of test compounds on phosphorylated Akt at serine 473 (pAKTs473) in primary human lung fibroblasts (Lonza Group Ltd, Basel, Switzerland, Catalogue No. CC-2512) using the MesoScale Discovery (MSD) platform to quantify levels of total Akt and pAKTser473.
Human lung fibroblasts were routinely maintained in fibroblast basal medium supplemented with 2% foetal bovine serum (FBS), 0.1% human fibroblast growth factor (FGF)-B, 0.1% insulin, 0.1% GA-100 (Lonza Group Ltd, Basel, Switzerland, Catalogue No. CC-3132) at 37° C. in 5% CO2 according to the manufacturer's protocol.
For the assay, cells were harvested using Trypsin/EDTA, (Lonza Group Ltd, Basel, Switzerland, Catalogue No. CC-5012), at working concentration of 0.025%, resuspended to give 3×10^5 cells/ml and 50 ul/well seeded into 384-well plates (Greiner Group, Kremsmunster, Austria, Catalogue No. 781091) in media containing 0.4% FBS and incubated o/n at 37° C. in 5% CO2.
Test compounds were dissolved in 100% DMSO to give 10 mM stock solutions and serially diluted to generate an 11-point concentration response curve. Compound were further diluted by […] into 384-well V-bottom polypropylene plates (Greiner Group, Kremsmunster, Austria, Catalogue No. 781280) with media containing 0.4% FBS to give 50 μM top compound concentration in 0.5% DMSO.
Compounds were transferred to 384-well plates contacting cells (0.1% DMSO final) and incubated for 1 h at 37° C. in 5% CO2, prior to stimulation with platelet-derived growth factor (PDGF)-BB (R&D Systems, Catalogue No. 220-BB) at 10 ng/ml (final) for 10 min at RT. Cell assay plates were incubated on ice and treated with lysis buffer (Cell Signalling Technology, Catalogue No. 9806) containing protease and phosphatase inhibitors (Thermo Scientific, Catalogue No. 78444) followed by shaking for 30 min at 4° C.
MSD plates (MSD, MA6000 384-well GAR plate, Catalogue No. L21RA-2) were blocked with blocking buffer containing TBS (MSD, Cat. No. R61TX-1) with 0.5% bovine serum albumin (BSA) (Sigma Aldrich, Cat. No. A7906), 0.1% tween-20 (Sigma Aldrich, Catalogue No. P2287) and coated with rabbit-anti-human pAkt (s473) ab (Cell Signalling Technology, Catalogue No. CST #4060) at RT with shaking, followed by washing (×3) with 1×TBS wash reagent containing 0.1% Tween-20. Cell lysates (30 ul) were added and MSD plates centrifuged at 1000 rpm at 4° C. o/n.
Plates were washed with 1×TBS wash buffer (×3), prior to addition of mouse-anti-human-total Akt ab (1 mg/ml) (Upstate (Milipore), Catalogue No. 05-591) in blocking buffer and shaken at RT for 1 h. After washing with 1×TBS wash buffer (×3), plates were incubated with goat-anti-mouse SULFO-TAG detection ab (MSD, Catalogue No. R32AC-1) (1:500 in blocking buffer) for 1 h at RT. Plates were washed with 1×TBS (×3) and read buffer (2×) (MSD, Catalogue No. R92TC-1) added before detecting electrochemiluminescence (MSD Sector Imager 6000).
Data analysis was performed by determining % inhibition values for test compounds relative to the minimum (+PDGF-BB stimulation) and maximum responses (no PDGF-BB stimulation) with non-linear regression analysis to determine IC50 values for test compounds.

Row | SMILES | IC50 [nM]
1 | CNCc1cc2nc(-c3cc(C(C)(C)S(C)(=O)=O)cc(N4CC5CCC(C4)O5)n3)ccc2[nH]1 [Example 4, 1-(5-(6-(8-oxa-3-azabicyclo[3.2.1]octan-3-yl)-4-(2-(methylsulfonyl)propan-2-yl)pyridin-2-yl)-1H-pyrrolo[3,2-b]pyridin-2-yl)-N-methylmethanamine] | 3.16 to 316
2 | CC[C@H]1COCCN1c1cc(C2(S(C)(=O)=O)CCOCC2)cc(-c2ccc3[nH]c(CO)cc3n2)n1 [Example 33, (5-{6-[(3S)-3-ethylmorpholin-4-yl]-4-(4-methanesulfonyloxan-4-yl)pyridin-2-yl}-1H-pyrrolo[3,2-b]pyridin-2-yl)methanol] | 2.51 to 10
3 | CC[C@H]1COCCN1c1cc(C2(S(C)(=O)=O)CC2)cc(-c2ccc3[nH]c(CNC)cc3n2)n1 [Example 19, [(5-{6-[(3S)-3-ethylmorpholin-4-yl]-4-(1-methanesulfonylcyclopropyl)pyridin-2-yl}-1H-pyrrolo[3,2-b]pyridin-2-yl)methyl](methyl)amine] | 2.51 to 10
4 | CC[C@H]1COCCN1c1cc(C(C)(C)S(N)(=O)=O)cc(-c2ccc3[nH]c(CNC)cc3n2)n1 [Example 28, 2-{2-[(3S)-3-ethylmorpholin-4-yl]-6-{2-[(methylamino)methyl]-1H-pyrrolo[3,2-b]pyridin-5-yl}pyridin-4-yl}propane-2-sulfonamide] | 3.16 to 316
5 | CC[C@H]1COCCN1c1cc(C2(S(=O)(=O)C3CC3)CC2)cc(-c2ccc3[nH]c(CNC)cc3n2)n1 [Example 11, (S)-1-(5-(4-(1-(cyclopropylsulfonyl)cyclopropyl)-6-(3-ethylmorpholino)pyridin-2-yl)-1H-pyrrolo[3,2-b]pyridin-2-yl)-N-methylmethanamine] | 3.16 to 316
6 | CNCc1cc2nc(-c3cc(C(C)(C)S(C)(=O)=O)cc(N4[C@@H]5CC[C@H]4COC5)n3)ccc2[nH]1 [Example 3, 1-(5-(6-((1R,5S)-3-oxa-8-azabicyclo[3.2.1]octan-8-yl)-4-(2-(methylsulfonyl)propan-2-yl)pyridin-2-yl)-1H-pyrrolo[3,2-b]pyridin-2-yl)-N-methylmethanamine] | 3.16 to 316
7 | CC[C@H]1COCCN1c1cc(CS(C)(=O)=O)cc(-c2ccc3[nH]c(CO)cc3n2)n1 [Example 34, (5-{6-[(3S)-3-ethylmorpholin-4-yl]-4-(methanesulfonylmethyl)pyridin-2-yl}-1H-pyrrolo[3,2-b]pyridin-2-yl)methanol] | 2.51 to 10
8 | CNCc1cc2nc(-c3cc(CS(C)(=O)=O)cc(N4CCOC[C@@H]4C)n3)ccc2[nH]1 [Example 6, (S)—N-methyl-1-(5-(6-(3-methylmorpholino)-4-((methylsulfonyl)methyl)pyridin-2-yl)-1H-pyrrolo[3,2-b]pyridin-2-yl)methanamine] | 3.16 to 316
9 | CC[C@H]1COCCN1c1cc(CS(=O)(=O)N(C)C)cc(-c2ccc3[nH]c(CO)cc3n2)n1 [Example 35, 1-{2-[(3S)-3-ethylmorpholin-4-yl]-6-[2-(hydroxymethyl)-1H-pyrrolo[3,2-b]pyridin-5-yl]pyridin-4-yl}-N,N-dimethylmethanesulfonamide] | 2.51 to 10
10 | CNCc1cc2nc(-c3cc(C4(S(C)(=O)=O)CC4)cc(N4CCOC[C@@H]4C)n3)ccc2[nH]1 [Example 20, ({5-[4-(1-methanesulfonylcyclopropyl)-6-[(3S)-3-methylmorpholin-4-yl]pyridin-2-yl]-1H-pyrrolo[3,2-b]pyridin-2-yl}methyl)(methyl)amine] | 3.16 to 316
11 | CNCc1cc2nc(-c3cc(C(F)(F)S(C)(=O)=O)cc(N4CCOC[C@@H]4C)n3)ccc2[nH]1 [Example 12, (S)-1-(5-(4-(difluoro(methylsulfonyl)methyl)-6-(3-methylmorpholino)pyridin-2-yl)-1H-pyrrolo[3,2-b]pyridin-2-yl)-N-methylmethanamine] | 3.16 to 316
12 | CC[C@H]1COCCN1c1cc(C2(S(C)(=O)=O)CCOCC2)cc(-c2ccc3[nH]c(CN)cc3n2)n1 [Example 23, 1-(5-{6-[(3S)-3-ethylmorpholin-4-yl]-4-(4-methanesulfonyloxan-4-yl)pyridin-2-yl}-1H-pyrrolo[3,2-b]pyridin-2-yl)methanamine] | 2.51 to 10
